Results reported in patent publication US9067913B2, “Fumigillol type compounds and methods of making and using same” (Zafgen, Inc., priority 2010, dated 2015).
Marks after values point to notes of the source that are not given here.

Legend:
MetAP2 [1] = target: T1, MetAP2 (Homo sapiens, UniProt P50579); assay: MetAP2 enzyme assay; format: biochemical; conditions: for inhibition at 0.05 µM: 50 nM; for inhibition at 0.2 µM: 200 nM
Method: Compound A was tested in a MetAP2 enzyme assay. Table 1 indicates the inhibition results for various concentrations: […]

MetAP2 [2] = target: T1, MetAP2; assay: cell based assay, inhibition of MetAP2
Method: In a cell based assay, the inhibition of MetAP2 was <10 nM.

[3] = weight loss study in obese mice (high-fat diet induced), Example 2; format: in vivo, C57BL/6NTac mice; conditions: 1.0 mg/kg in 10% gelucire in deionised water, once a day for 7 days, 60% fat diet
Method: A weight loss study was conducted in obese mice. The mice in this study were not genetically obese, but prior to and during the study, obesity was induced by a high-fat diet. Twelve week-old C57BL/6NTac mice, maintained on a 60% fat diet prior to and during the study, were separated into seven groups, eight animals per group. Average body weight of the mice was approximately 47 g at the start of the study.
Mice were administered 1.0 mg/kg of compound A in 10% gelucire in deionised water. Mice received administrations once a day for 7 days. The one week weight loss was 11.9%.

[4] = Study A: 7 day screen, weight loss in mice on 45% kcal fat diet; format: in vivo, C57BL/6 mice
Method: Three studies were conducted using 18-20 week old C57BL/6 mice. Study A was a 7 day screen that included 18-20 week old C57BL/6 mice that were provided a 45% kcal fat diet for 14 weeks, and treated with either 10% Gelucire in water or the same vehicle containing an amount of compound A to deliver a dose of 1 mg/kg dosed daily for 7 days.

[5] = Study B: 10 day study, weight loss in mice on 60% kcal fat diet; format: in vivo, C57BL/6 mice; conditions: PO 3 mg/kg, 10% DMSO
Method: Study B was a 10 day study that included 20 week old C57BL/6 mice on 60% kcal fat diet for 14 weeks treated with either 10% DMSO or the same vehicle containing an amount of drug to deliver a dose of 3 mg/kg of compound A for 10 days. FIG. 2 depicts the 7-day PO efficacy at 3 mg/kg of compound A.

[6] = Example 4: body weight loss compared to vehicle, 3 mg/kg for 10 days; format: in vivo, C57BL/6 mice; conditions: compared with compound (i) and compound (ii)
Method: 20 week old C57BL/6 mice on 60% kcal fat diet for 14 weeks treated with either 10% DMSO or the same vehicle containing an amount of drug to deliver a dose of 3 mg/kg of compound (ii) (as identified above), compound (i) [fumigillol], and compound A for 10 days. FIG. 3 indicates the body weight loss compared to vehicle for each compound.

MetAP2 [7] = assay: Example 4: testes biomarker, N-terminal peptide of mouse thioredoxin (SEQ ID NO. 1) by LC-MS/MS; format: in vivo; conditions: 3 mg/kg for 10 days, testes harvested at end of study
Description: At the end of the study testes from the mice were harvested, homogenized and digested with endoproteinase Glu-C.

[8] = Study C: 10 day study, weight loss in mice on 60% kcal fat diet; format: in vivo, C57BL/6 mice; conditions: 10% DMSO
Method: Study C was a 10 day study that included 20 week old C57BL/6 mice on 60% kcal fat diet for 14 weeks treated with either 10% DMSO or the same vehicle containing an amount of drug to deliver an oral dose of 1 mg/kg or 3 mg/kg of the compound 6-O-(4-dimethylaminoethoxy)cinnamoyl fumagillol (dimethyl analogue) for 10 days.

T1 sequence (P50579 whole entry, species assumed): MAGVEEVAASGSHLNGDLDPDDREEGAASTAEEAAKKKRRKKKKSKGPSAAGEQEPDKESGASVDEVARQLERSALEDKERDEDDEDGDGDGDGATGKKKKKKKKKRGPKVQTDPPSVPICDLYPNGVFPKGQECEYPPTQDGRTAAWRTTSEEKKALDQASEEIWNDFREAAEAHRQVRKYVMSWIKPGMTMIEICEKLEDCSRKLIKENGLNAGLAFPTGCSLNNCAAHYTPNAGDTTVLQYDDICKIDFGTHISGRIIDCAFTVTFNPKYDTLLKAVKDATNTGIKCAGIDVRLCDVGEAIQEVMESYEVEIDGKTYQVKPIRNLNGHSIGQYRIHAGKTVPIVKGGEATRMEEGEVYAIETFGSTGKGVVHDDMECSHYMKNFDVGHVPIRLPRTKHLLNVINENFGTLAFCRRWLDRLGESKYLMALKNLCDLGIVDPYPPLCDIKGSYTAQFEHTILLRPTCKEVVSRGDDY

`CCN(CC)CCOc1ccc(/C=C/C(=O)O[C@@H]2CC[C@]3(CO3)[C@@H]([C@@]3(C)O[C@@H]3CC=C(C)C)[C@@H]2OC)cc1` [Compound A] gave an inhibition at 0.05 µM (MetAP2 [1]; 1 hr) of 42%, an inhibition at 0.2 µM (MetAP2 [1]; 1 hr) of 100% and an inhibition at 0.05 µM (MetAP2 [1]; 2 hr) of 45%. The inhibition at 0.2 µM (MetAP2 [1]; 2 hr) was 100%, the inhibition at 0.05 µM (MetAP2 [1]; 4 hr) was 71% and the inhibition at 0.2 µM (MetAP2 [1]; 4 hr) was 100%. For the same compound, the IC50 (MetAP2 [2]) was under 10 nM, the “one week weight loss” value [3] was 11.9% and the “weight loss at day 7” value ([4]; PO 1 mg/kg daily, Study A, 10% Gelucire in water, 45% kcal fat diet) was 12%^a. For the same compound, the “potency dosed orally as compared to 6-O-(4-dimethylaminoethoxy)cinnamoyl fumagillol” value ([4]; day 7 weight loss, studies A, B, C compared) was at least 3 times, the “weight loss at day 7” value [5] was 13%^b and the “weight loss potency (FIG. 3)” value [6] was “comparable weight loss potency”. The “availability to the testes tissue (concentration of SEQ ID NO. 1, FIG. 4)” value (MetAP2 [7]) was “not as available to the testes tissue as compared to the other tested compounds”.

With `CO[C@@H]1[C@H](OC(=O)C=Cc2ccc(OCCN(C)C)cc2)CC[C@]2(CO2)[C@H]1[C@@]1(C)O[C@@H]1CC=C(C)C` [dimethyl analogue, 6-O-(4-dimethylaminoethoxy)cinnamoyl fumagillol] the “weight loss at day 7” value ([8]; PO 1 mg/kg) was 1.1%^c and the “weight loss at day 7” value ([8]; PO 3 mg/kg) was 11%^c.
